In patent US7034035B2, “Fungicidal mono-, bi-, and tri-cycloheteroalkyl amides and their compositions, methods of use and preparation” (priority 1999, dated 2006):

Assays:
[1] = tested on: Ustilago maydis (USTIMA); experiment: microbe, parasite or virus in culture; assay type: cell-based
[2] = tested on: Rhizoctonia solani (RHIZSO); experiment: microbe, parasite or virus in culture; assay type: cell-based
Further: test concentration or dose not given here.

Row | SMILES | USTIMA in vitro Growth Inhibition [1] | RHIZSO in vitro Growth Inhibition [2]
1 | COc1ccnc(C(=O)NC/C=C(\C)CCC=C(C)C)c1O [Compound 242] | + (key: +: at least 80% growth inhibition; −: less than 80% growth inhibition) | + (key: +: at least 80% growth inhibition; −: less than 80% growth inhibition)
2 | COc1ccnc(C(=O)NCCCc2cccnc2)c1O [Compound 243] | − (key: +: at least 80% growth inhibition; −: less than 80% growth inhibition) | − (key: +: at least 80% growth inhibition; −: less than 80% growth inhibition)
3 | COc1ccnc(C(=O)NCC(C)(C)Sc2ncc(C(F)(F)F)cc2Cl)c1O [Compound 244] | − (key: +: at least 80% growth inhibition; −: less than 80% growth inhibition) | − (key: +: at least 80% growth inhibition; −: less than 80% growth inhibition)
4 | COc1ccnc(C(=O)NCC2COCCOCCOCCOCCO2)c1O (stereo not shown) [Compound 245] | − (key: +: at least 80% growth inhibition; −: less than 80% growth inhibition) | − (key: +: at least 80% growth inhibition; −: less than 80% growth inhibition)
5 | COc1ccnc(C(=O)NC(C)c2ccc(C(F)(F)F)cc2)c1O (stereo not shown) [Compound 247] | − (key: +: at least 80% growth inhibition; −: less than 80% growth inhibition) | − (key: +: at least 80% growth inhibition; −: less than 80% growth inhibition)
6 | COc1ccnc(C(=O)NC2CCCC2O)c1O (stereo not shown) [Compound 248] | − (key: +: at least 80% growth inhibition; −: less than 80% growth inhibition) | − (key: +: at least 80% growth inhibition; −: less than 80% growth inhibition)
7 | COc1ccnc(C(=O)NC2CCCC2=O)c1O (stereo not shown) [Compound 249] | − (key: +: at least 80% growth inhibition; −: less than 80% growth inhibition) | − (key: +: at least 80% growth inhibition; −: less than 80% growth inhibition)
8 | COc1ccnc(C(=O)NC2CC(C)(C)CC(C)(C)C2)c1O [Compound 250] | − (key: +: at least 80% growth inhibition; −: less than 80% growth inhibition) | − (key: +: at least 80% growth inhibition; −: less than 80% growth inhibition)
9 | COc1ccnc(C(=O)NC2CC(C)(C)CC(C)(C3CC3)C2)c1O (stereo not shown) [Compound 252] | − (key: +: at least 80% growth inhibition; −: less than 80% growth inhibition) | + (key: +: at least 80% growth inhibition; −: less than 80% growth inhibition)
10 | CCCCC1(C)CC(NC(=O)c2nccc(OC)c2O)CC(C)(C)C1 (stereo not shown) [Compound 253] | − (key: +: at least 80% growth inhibition; −: less than 80% growth inhibition) | − (key: +: at least 80% growth inhibition; −: less than 80% growth inhibition)
11 | CCCCC1(C)CCCC(NC(=O)c2nccc(OC)c2O)C1 (stereo not shown) [Compound 254] | − (key: +: at least 80% growth inhibition; −: less than 80% growth inhibition) | − (key: +: at least 80% growth inhibition; −: less than 80% growth inhibition)
12 | COc1ccnc(C(=O)NC2CC(C(F)(F)F)CC(C(F)(F)F)C2)c1O (stereo not shown) [Compound 256] | − (key: +: at least 80% growth inhibition; −: less than 80% growth inhibition) | − (key: +: at least 80% growth inhibition; −: less than 80% growth inhibition)
13 | COc1ccnc(C(=O)NC2CC(c3ccco3)CC(C)(C)C2)c1O (stereo not shown) [Compound 258] | − (key: +: at least 80% growth inhibition; −: less than 80% growth inhibition) | − (key: +: at least 80% growth inhibition; −: less than 80% growth inhibition)
14 | COc1ccnc(C(=O)NC2C[C@H](C)C[C@H](c3ccccn3)C2)c1O (stereo partly shown) [Compound 259] | − (key: +: at least 80% growth inhibition; −: less than 80% growth inhibition) | − (key: +: at least 80% growth inhibition; −: less than 80% growth inhibition)
15 | COc1ccnc(C(=O)NC2CC(C)(C)CC(C)(C(=O)c3ccccc3)C2)c1O (stereo not shown) [Compound 260] | − (key: +: at least 80% growth inhibition; −: less than 80% growth inhibition) | − (key: +: at least 80% growth inhibition; −: less than 80% growth inhibition)
16 | COc1ccnc(C(=O)NC2CC(C)(C)CC(C)(C(=O)OCCC(C)(C)C)C2)c1O (stereo not shown) [Compound 261] | − (key: +: at least 80% growth inhibition; −: less than 80% growth inhibition) | − (key: +: at least 80% growth inhibition; −: less than 80% growth inhibition)
17 | COc1ccnc(C(=O)N[C@H]2CC(C)(C)[C@H](O)C(C)(C)C2)c1O [Compound 264, trans-4-Hydroxy-3,3,5,5-Tetramethylpicolinamide] | − (key: +: at least 80% growth inhibition; −: less than 80% growth inhibition) | − (key: +: at least 80% growth inhibition; −: less than 80% growth inhibition)
18 | COc1ccnc(C(=O)NC2CC(C)(C)C(OC)C(C)(C)C2)c1O (stereo not shown) [Compound 265] | − (key: +: at least 80% growth inhibition; −: less than 80% growth inhibition) | − (key: +: at least 80% growth inhibition; −: less than 80% growth inhibition)

Row | SMILES | USTIMA in vitro Growth Inhibition [1] | RHIZSO in vitro Growth Inhibition [2]
19 | COc1ccnc(C(=O)NC2CC(C)(C)C(=O)C(C)(C)C2)c1O [Compound 266] | − (key: +: at least 80% growth inhibition; −: less than 80% growth inhibition) | − (key: +: at least 80% growth inhibition; −: less than 80% growth inhibition)
20 | COc1ccnc(C(=O)NC2CC(C)(C)C(OC(=O)CC(C)C)C(C)(C)C2)c1O (stereo not shown) [Compound 267] | + (key: +: at least 80% growth inhibition; −: less than 80% growth inhibition) | − (key: +: at least 80% growth inhibition; −: less than 80% growth inhibition)
21 | COc1ccnc(C(=O)NC2CC(C)(C)C(OC(=O)c3ccccc3)C(C)(C)C2)c1O (stereo not shown) [Compound 268] | − (key: +: at least 80% growth inhibition; −: less than 80% growth inhibition) | − (key: +: at least 80% growth inhibition; −: less than 80% growth inhibition)
22 | COc1ccnc(C(=O)N[C@H]2CC[C@@H](Oc3ccc(C(F)(F)F)cc3)CC2)c1O [Compound 271] | + (key: +: at least 80% growth inhibition; −: less than 80% growth inhibition) | + (key: +: at least 80% growth inhibition; −: less than 80% growth inhibition)
23 | COc1ccnc(C(=O)N[C@@H]2CCCC[C@H]2SC)c1O [Compound 273] | − (key: +: at least 80% growth inhibition; −: less than 80% growth inhibition) | − (key: +: at least 80% growth inhibition; −: less than 80% growth inhibition)
24 | COc1ccnc(C(=O)NC2CCC(Sc3ccccc3)CC2)c1O (stereo not shown) [Compound 275] | − (key: +: at least 80% growth inhibition; −: less than 80% growth inhibition) | + (key: +: at least 80% growth inhibition; −: less than 80% growth inhibition)
25 | COc1ccnc(C(=O)NC2CC(C)(C)C=CC=C2C)c1O (stereo not shown) [Compound 278] | − (key: +: at least 80% growth inhibition; −: less than 80% growth inhibition) | − (key: +: at least 80% growth inhibition; −: less than 80% growth inhibition)
26 | COc1ccnc(C(=O)NC2CC(C)(C)C=CC(C)C2C)c1O (stereo not shown) [Compound 279] | − (key: +: at least 80% growth inhibition; −: less than 80% growth inhibition) | − (key: +: at least 80% growth inhibition; −: less than 80% growth inhibition)
27 | COc1ccnc(C(=O)NC2CC(C)(C)C3OC3[C@H](C)[C@H]2C)c1O (stereo partly shown) [Compound 280] | − (key: +: at least 80% growth inhibition; −: less than 80% growth inhibition) | − (key: +: at least 80% growth inhibition; −: less than 80% growth inhibition)
28 | COc1ccnc(C(=O)NC2CC(C)(C)C(Cl)C(Cl)[C@H](C)[C@H]2C)c1O (stereo partly shown) [Compound 281] | − (key: +: at least 80% growth inhibition; −: less than 80% growth inhibition) | − (key: +: at least 80% growth inhibition; −: less than 80% growth inhibition)
29 | COc1ccnc(C(=O)NC2CCCCCCC2)c1O [Compound 282] | − (key: +: at least 80% growth inhibition; −: less than 80% growth inhibition) | − (key: +: at least 80% growth inhibition; −: less than 80% growth inhibition)
30 | COc1ccnc(C(=O)NC2c3ccccc3CC2(C)C)c1O (stereo not shown) [Compound 284] | − (key: +: at least 80% growth inhibition; −: less than 80% growth inhibition) | − (key: +: at least 80% growth inhibition; −: less than 80% growth inhibition)
31 | COc1ccnc(C(=O)NC2CCc3ccccc3C2=O)c1O (stereo not shown) [Compound 285] | − (key: +: at least 80% growth inhibition; −: less than 80% growth inhibition) | + (key: +: at least 80% growth inhibition; −: less than 80% growth inhibition)
32 | COc1ccnc(C(=O)NC2CCC[C@H]3CC(CCC=C(C)C)=CC[C@@H]23)c1O (stereo partly shown) [Compound 286] | − (key: +: at least 80% growth inhibition; −: less than 80% growth inhibition) | + (key: +: at least 80% growth inhibition; −: less than 80% growth inhibition)
33 | COc1ccnc(C(=O)NC2CC3CCC2C3)c1O (stereo not shown) [Compound 287] | − (key: +: at least 80% growth inhibition; −: less than 80% growth inhibition) | + (key: +: at least 80% growth inhibition; −: less than 80% growth inhibition)
34 | COc1ccnc(C(=O)NC2C3(C)CCC(C3)C2(C)C)c1O (stereo not shown) [Compound 288] | − (key: +: at least 80% growth inhibition; −: less than 80% growth inhibition) | + (key: +: at least 80% growth inhibition; −: less than 80% growth inhibition)
35 | COc1ccnc(C(=O)NC2CCC[C@H]3[C@H]4CC[C@H](C4)[C@@H]23)c1O (stereo partly shown) [Compound 291] | − (key: +: at least 80% growth inhibition; −: less than 80% growth inhibition) | + (key: +: at least 80% growth inhibition; −: less than 80% growth inhibition)
